“Also recorded” adds a separate entry of the source. Like-named read-outs stand apart in the source and are kept apart here. Values belong to the compound of their own block, whether it stands above or below them.
Columns and labels:
[1] = system: ovulation; conditions: cited from earlier work
[2] = cited from earlier work
[3] = system: ovary; assay: IVR study in cynomolgus monkeys: ultrasound scans of the ovary; format: in vivo, cynomolgus monkey; conditions: for Ovarian cysts (ultrasound): cycle days 1-26
Excerpt: (§1) This comprises, among other things, cycle length, hormone receptors, morphology, endocrine system and regulation of the pituitary-ovarian axis (Borghi, M. R., R. Niesvisky, et al. (1983). “Administration of agonistic and antagonistic analogues of LH-RH induce anovulation in Macaca fasicularis.” Contraception 27(6): 619-626. Satoru Oneda, T. I., Katsumi Hamana (1996). “Ovarian Response to Exogenous Gonadotropins in Infant Cynomolgus Monkeys” International Journal of Toxicology, 15(3): 194-204). The pharmacodynamic and pharmacokinetic effect of intravaginally administered dosages of the aromatase inhibitor anastrozole was studied over the duration of a menstrual cycle by inserting a vaginal ring (IVR) having three different release rates. Among other things, the influence on the pituitary-ovarian axis was studied by determining the hormones estradiol, FSH, progesterone (the blood collections required for this were carried out over the entire experimental period; on day 1, four collections [0 h, 1 h, 3 h, 6 h after insertion of the IVR]; 1 collection each on days 2 and 3; after this time point, further collections followed on every 3rd day) and by ultrasound scans of the ovary (2× per week). Hormone determination was carried out according to the instructions provided by the supplier (estradiol [Siemens/DPC], progesterone [Beckmann-Culter/DSL], FSH [SHG]). An IVR having an initial in vitro release of 0 μg/day (placebo, no anastrozole), 390 μg/day, 85 μg/day or 27 μg/day was inserted into five animals per group one to three days after the last day of menstruation. Animals having irregular cycles were excluded from the experiment.

[4] = system: ovarian stimulation; conditions: applied orally; cited from earlier work
[5] = Plasma concentration of anastrozole after IVR administration and PK-based in vivo release; set-up: species or system female cynomolgus monkeys; conditions: in vitro release in buffer vs calculated in vivo release, primate experiment
Experimental: The concentration of anastrozole in plasma samples was quantitatively determined by means of liquid-liquid extraction with liquid chromatography coupled to tandem mass spectrometry (LC/ESI-MS/MS). The analyses were carried out on an Agilent 1200 and an AB Sciex Triple Quad 5500 in positive ionization mode. For this purpose, 100 μl were initially taken from each plasma sample, admixed with 300 μl of an aqueous solution containing any non-structurally-related compound as internal standard, and extracted with 1.3 ml of methyl tert-butyl ether on a Perkin Elmer Mass Prep Station. […] 5 μl of this were injected into the LC/MS/MS, the m/z transition 294 ([M+H]+)→225 was recorded, and the signal was integrated with the AB Sciex Software Analyst 1.5. The concentrations of the plasma samples were determined from the resulting areas with the aid of a calibration curve present in the same sequence (0, 0.0500 to 1000 nM in plasma, n=2). […]
The mean plasma concentration (Css) of anastrozole was calculated as the mean value of all measured concentrations per dose group from the day after insertion of the IVR up to the end of the experiment.
The mean in vivo release rates (Rin) from the IVR were subsequently calculated according to the equation: Rin=Css*CL (see table X). […]

[6] = system: plasma protein; assay: Plasma protein binding by equilibrium dialysis, cynomolgus monkey plasma; format: in vitro ADME; conditions: seven hours at 37° C.
[7] = as above; format: in vitro ADME; conditions: cynomolgus monkey, plasma, seven hours at 37° C., read-out: Plasma protein binding [free fraction, fu]
[8] = Estimation of IVR release rate and serum level for human application
Experimental: Subsequently, an estimation was made of the in vitro IVR release rate of an IVR for human application, which is necessary to achieve serum levels which led to a lowering of estradiol in the monkeys. […] The corresponding effective serum concentration in humans is estimated to be 9 μg/l, taking into account species-specific plasma protein binding, according to equation (1) below.
The mean in vivo release rate from the IVR which is necessary to achieve a plasma concentration of 9 μg/l in humans is calculated according to equation 2. For this equation, the plasma clearance of anastrozole in humans is required.

[9] = system: systemic estrogen levels; conditions: 1 mg/day, post-menopausal women; cited from earlier work
[10] = system: plasma protein; assay: Plasma protein binding by equilibrium dialysis, human plasma; format: in vitro ADME; conditions: seven hours at 37° C.
[11] = as above; format: in vitro ADME; conditions: human, plasma, seven hours at 37° C., read-out: Plasma protein binding [free fraction, fu]
[12] = system: pituitary-ovarian axis; assay: IVR study in cynomolgus monkeys: estradiol, FSH and progesterone levels; format: in vivo, cynomolgus monkey
Excerpt: as §1

[13] = in vivo; conditions: female, cynomolgus monkey, plasma, iv, 0.2 mg/kg
[14] = IVR 27 μg/day initial in vitro release
[15] = IVR 85 μg/day initial in vitro release
[16] = IVR 390 μg/day initial in vitro release

SMILES: C#C[C@]1(O)CC[C@H]2[C@@H]3CCC4=CCCC[C@@H]4[C@H]3CC[C@@]21C [Lynestrenol]
Ovulation inhibition dose ([1]; Neumann et al): 2000 μg/day p.o. | Ovulation inhibition dose ([1]; Taubert & Kuhl): 2000 μg/day p.o.

SMILES: CC(=O)O[C@]1(C(C)=O)CC[C@H]2[C@@H]3C[C@H](C)C4=CC(=O)CC[C@]4(C)[C@H]3CC[C@@]21C [Medroxyprogesterone acetate]
Ovulation inhibition dose ([1]; Neumann et al): 10 μg/day p.o.

Ovarian cysts (ultrasound) [3, 14]: None | Ovarian cysts (ultrasound) [3, 15]: None | Ovarian cysts (ultrasound) [3, 16]: None | formation of ovarian cysts ([3]; at the dosages used (27, 85, 390 μg/day)): no formation of ovarian cysts | in vitro/in vivo correction factor [5]: 1.1 | Plasma protein binding [free fraction, fu] [6]: 34% | fraction unbound at 7 h [7]: 0.52 | initial in vitro release rate, for humans ([8]; […]): about 350 μg per day | Calculated initial in vitro IVR release rate (in buffer) with a decreasing release rate ([8]; decrease 32% in 4 weeks, human dose): ≈350 μg/day/60 kg patient | corresponding effective serum concentration in humans ([8]; from monkey Css 5.9 μg/l, corrected for species-specific plasma protein binding): 9 µg/L | constant in vitro release rate in buffer, for humans ([8]; in vitro/in vivo correction factor 1.1): 270 µg/day | human in vivo release rate, kept constant ([8]; to achieve levels that lowered estradiol in the monkeys): 246 µg/day | Calculated constant in vitro IVR release rate (in buffer) ([8]; to maintain in humans plasma levels of the effective dose in cynomolgus monkeys): ≈270 μg/day/60 kg patient | Calculated constant in vivo IVR release rate in humans ([8]; to maintain plasma levels of the effective dose in cynomolgus monkeys): ≈250 μg/day/60 kg patient | Plasma protein binding [free fraction, fu] [10]: 52% | fraction unbound at 7 h [11]: 0.34 | clearance [13]: 9.67 mL/min/kg
SMILES: CC(C)(C#N)c1cc(Cn2cncn2)cc(C(C)(C)C#N)c1 [Anastrozole, anastrozole]
CLpl (CL/F) ([2]; Human, oral administration): 0.33 mL/min/kg | oral bioavailability (F) ([2]; humans): approximately 1 | oral dosage at which ovarian stimulation can occur [4]: 1 mg | reduction of systemic estrogen levels [9]: more than 85% | estradiol levels during the follicular phase compared to the placebo group ([12]; 390 μg per day initial release, P value <0.0478): lowers the estradiol levels significantly; also recorded: significant fall during the follicular phase | E2 AUC (cycle days 1-26) [12, 14]: 4862 ± 1986 pmol/L | E2 AUC (follicular, cycle days 1-17) [12, 14]: 3854 ± 927.5 pmol/L/day | E2 AUC (luteal, cycle days 17-26) [12, 14]: 403.2 ± 169.7 pmol/L | FSH Mean level/day without preovulatory maximum [12, 14]: 5.52 ± 3.07 µg/L | Progesterone Mean level/day Follicular phase [12, 14]: 5.57 ± 5.11 nmol/L | Progesterone Mean level/day Luteal phase [12, 14]: 91.92 ± 52.78 nmol/L | E2 AUC (cycle days 1-26) [12, 15]: 4126 ± 2063 pmol/L | E2 AUC (follicular, cycle days 1-17) [12, 15]: 3235 ± 1101 pmol/L/day | E2 AUC (luteal, cycle days 17-26) [12, 15]: 605.1 ± 264.1 pmol/L | FSH Mean level/day without preovulatory maximum [12, 15]: 4.90 ± 2.58 µg/L | Progesterone Mean level/day Follicular phase [12, 15]: 6.58 ± 3.91 nmol/L | Progesterone Mean level/day Luteal phase [12, 15]: 60.02 ± 22.65 nmol/L | E2 AUC (cycle days 1-26) [12, 16]: 2784 ± 999.8 pmol/L | E2 AUC (follicular, cycle days 1-17) [12, 16]: 1978 ± 350.6 pmol/L/day | E2 AUC (luteal, cycle days 17-26) [12, 16]: 342.9 ± 135.2 pmol/L | FSH Mean level/day without preovulatory maximum [12, 16]: 4.83 ± 2.91 µg/L | Progesterone Mean level/day Follicular phase [12, 16]: 4.58 ± 2.64 nmol/L | Progesterone Mean level/day Luteal phase [12, 16]: 92.88 ± 55.50 nmol/L | counterregulation by the pituitary-ovarian axis ([12]; at the dosages used (27, 85, 390 μg/day), compared to placebo): fails to occur

SMILES: C[C@]12CCC(=O)C=C1[C@@H]1C[C@@H]1[C@H]1[C@@H]3[C@@H]4C[C@@H]4[C@@]4(CCC(=O)O4)[C@@]3(C)CC[C@@H]12 [Drospirenone]
Ovulation inhibition dose ([1]; Neumann et al): 2000 μg/day p.o.

SMILES: N#Cc1ccc(C(c2ccc(C#N)cc2)n2cncn2)cc1 [Letrozole, letrozole]
oral dosage at which ovarian stimulation can occur [4]: 2.5 mg

SMILES: C#C[C@]1(O)CC[C@H]2[C@@H]3CCC4=CC(=O)CC[C@@H]4[C@H]3CC[C@@]21C [Norethisterone]
Ovulation inhibition dose ([1]; Neumann et al): 500 μg/day p.o. | Ovulation inhibition dose ([1]; Taubert & Kuhl): 400 μg/day p.o.

SMILES: C#C[C@]1(OC(C)=O)CC[C@H]2[C@@H]3CCC4=CC(=NO)CC[C@@H]4[C@H]3CC[C@@]21CC (mixture of isomers) [Norgestimate]
Ovulation inhibition dose ([1]; Neumann et al): 200 μg/day p.o. | Ovulation inhibition dose ([1]; Taubert & Kuhl): 200 μg/day p.o.

SMILES: C#C[C@]1(OC(C)=O)CC[C@H]2[C@@H]3CCC4=CC(=O)CC[C@@H]4[C@H]3CC[C@@]21C [Norethisterone acetate]
Ovulation inhibition dose ([1]; Neumann et al): 500 μg/day p.o.

SMILES: C#C[C@]1(O)CC[C@H]2[C@@H]3CCC4=CCCC[C@@H]4[C@H]3C(=C)C[C@@]21CC [Desogestrel]
Ovulation inhibition dose ([1]; Neumann et al): 60 μg/day p.o. | Ovulation inhibition dose ([1]; Taubert & Kuhl): 60 μg/day p.o.

SMILES: CC(=O)O[C@]1(C(C)=O)CC[C@H]2[C@@H]3C=C(Cl)C4=CC(=O)[C@@H]5C[C@@H]5[C@]4(C)[C@H]3CC[C@@]21C [Cyproterone acetate]
Ovulation inhibition dose ([1]; Neumann et al): 1000 μg/day p.o. | Ovulation inhibition dose ([1]; Taubert & Kuhl): 1000 μg/day p.o.

SMILES: CC(=O)O[C@]1(C(C)=O)CC[C@H]2[C@@H]3C=C(Cl)C4=CC(=O)CC[C@]4(C)[C@H]3CC[C@@]21C [Chlormanidone acetate]
Ovulation inhibition dose ([1]; Neumann et al): 1500-2000 μg/day p.o. | Ovulation inhibition dose ([1]; Taubert & Kuhl): 1700 μg/day p.o.

SMILES: C#C[C@]1(O)C=C[C@H]2[C@@H]3CCC4=CC(=O)CC[C@@H]4[C@H]3CC[C@@]21CC [Gestodene]
Ovulation inhibition dose ([1]; Neumann et al): 30 μg/day p.o. | Ovulation inhibition dose ([1]; Taubert & Kuhl): 30 μg/day p.o.

SMILES: C#C[C@]1(O)CC[C@H]2[C@@H]3CCC4=CC(=O)CC[C@@H]4[C@H]3C(=C)C[C@@]21CC [3-Keto-Desogestrel]
Ovulation inhibition dose ([1]; Taubert & Kuhl): 60 μg/day p.o.

SMILES: C[C@]12CCC3=C4CCC(=O)C=C4CC[C@H]3[C@@H]1CC[C@@]2(O)CC#N [Dienogest]
Ovulation inhibition dose ([1]; Neumann et al): 1000 μg/day p.o.

Reference: patent US20150359802A1, “PARENTERAL PHARMACEUTICAL FORM WHICH RELEASES AROMATSE INHIBITOR AND GESTAGENS, FOR THE TREATMENT OF ENDOMETRIOSIS” (Bayer Intellectual Property GmbH, priority 2010, published 2015)
